Source: ChEMBL document CHEMBL5233218, “Quinolizidine alkaloids derivatives from Sophora alopecuroides Linn: Bioactivities, structure-activity relationships and preliminary molecular mechanisms” (Eur J Med Chem, 2020)

Columns and labels:
Type in all cases: functional, cell-based
[1] = Antiproliferative activity against rat HSC-T6 cells
[2] = tested on: LS180; assay: Cytotoxicity against human LS180 cells assessed as inhibition of cell growth by MTT assay
[3] = tested on: H22; assay: Cytotoxicity against mouse H22 cells assessed as inhibition of cell growth by MTT assay
[4] = tested on: HepG2; assay: Cytotoxicity against human HepG2 cells assessed as inhibition of cell growth by MTT assay
[5] = tested on: MRC5; assay: Anti-fibrotic activity in human MRC5 cells assessed as inhibition of TGF-beta1 induced total collagen deposition

Row | Compound | IC50 [2] [nM] | IC50 [3] [nM] | also measured
1 | O=C1CCC[C@@H]2[C@H]3CCCN4CCC[C@@H](CN12)[C@@H]34 [MATRINE] |  |  | IC50 [1]: 128000 nM
2 | COC(=O)CCC[C@@H]1[C@H]2CCCN3CCC[C@@H](CN1P(=O)(Oc1ccc(Br)cc1)N(CCCl)CCCl)[C@@H]23 (some centres undefined) | 2100 | 2100 | 
3 | O=c1[nH]cc(F)c(=O)[nH]1 [FLUOROURACIL] |  |  | IC50 [4]: 8020 nM
4 | COC(=O)CCC[C@@H]1[C@H]2CCCN3CCC[C@@H](CN1P(=O)(Oc1cccc(Cl)c1)N(CCCl)CCCl)[C@@H]23 (some centres undefined) | 2100 | 2100 | 
5 | COC(=O)CCC[C@@H]1[C@H]2CCCN3CCC[C@@H](CN1P(=O)(Oc1ccc(F)cc1)N(CCCl)CCCl)[C@@H]23 (some centres undefined) | 2100 | 2100 | 
6 | COC(=O)CCC[C@@H]1[C@H]2CCCN3CCC[C@@H](CN1P(=O)(Oc1cccc4ccccc14)N(CCCl)CCCl)[C@@H]23 (some centres undefined) | 2100 | 2100 | 
7 | CN(C(=O)CN/C=C/c1ccccc1)[C@@H]1CC(=S)N2C[C@@H]3CCCN4CCC[C@@H]([C@H]34)[C@H]2C1 |  |  | IC50 [1]: 62000 nM
8 | COC(=O)CCC[C@@H]1[C@H]2CCCN3CCC[C@@H](CN1P(=O)(Oc1ccc4ccccc4c1)N(CCCl)CCCl)[C@@H]23 (some centres undefined) | 2100 | 2100 | 
9 | O=C1CC(n2ccc3cc(Cl)ccc32)C[C@@H]2[C@H]3CCCN4CCC[C@@H](CN12)[C@@H]34 (some centres undefined) |  |  | IC50 [5]: 3300 nM
